Test results published in ChEMBL document CHEMBL1201862, “PubChem BioAssay data set” (2004).
Calls of active or inactive are those of the source. For most assays here, no stated cut-off is given here; in the data, actives have a measured EC50 and inactives only a lower limit.

Tests used:
[1] = Luminescence Cell-Based Dose Confirmation HTS to Identify Activators of 5'UTR Stem-Loop Driven Alpha-Synuclein mRNA Translation in H4 Neuroglioblastoma Cells. [Related pubchem assays: 1829 (Project Summary), 1814 (Primary HTS)]; assay type: functional
H4 = experiment: Luminescence Cell-Based Dose Response HTS to Identify Activators of 5'UTR Stem-Loop Driven Prion Protein mRNA Translation in H4 Neuroglioblastoma Cells. [Related pubchem assays: 1829 (Project Summary), 1814 (Primary HTS)]; assay type: functional; conditions: Homo sapiens
[2] = Luminescence Cell-Based Dose Response HTS to Identify Activators of Luciferase Translation or Activity in H4 […] Cells. [Related pubchem assays: 1829 (Project Summary), 1814 (Primary HTS)]; assay type: functional
[3] = NIH-3T3 fibroblast cytotoxicity, dose response, cytotoxicity control, cell-based, fluorescence, Alamar Blue, secondary assay (AID 2327); assay type: functional;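 further: NIH-3T3 mouse fibroblasts cultured with fluconazole at 8 µg/mL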
[4] = molecular target: T1, Heat shock factor protein 1 (Mus musculus, UniProt P38532); experiment: decrease of HSF1-responsive luciferase luminescence – cell-based, NIH3T3, dose retest, confirmation (AID 2382); assay type: functional;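 further: NIH3T3 fibroblasts with HSF1-driven luciferase reporter stressed by proteasome inhibitor MG132; luminescence from HSF1-driven luciferase expression after 8 hours of MG132 stress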
T1 sequence (P38532 whole entry): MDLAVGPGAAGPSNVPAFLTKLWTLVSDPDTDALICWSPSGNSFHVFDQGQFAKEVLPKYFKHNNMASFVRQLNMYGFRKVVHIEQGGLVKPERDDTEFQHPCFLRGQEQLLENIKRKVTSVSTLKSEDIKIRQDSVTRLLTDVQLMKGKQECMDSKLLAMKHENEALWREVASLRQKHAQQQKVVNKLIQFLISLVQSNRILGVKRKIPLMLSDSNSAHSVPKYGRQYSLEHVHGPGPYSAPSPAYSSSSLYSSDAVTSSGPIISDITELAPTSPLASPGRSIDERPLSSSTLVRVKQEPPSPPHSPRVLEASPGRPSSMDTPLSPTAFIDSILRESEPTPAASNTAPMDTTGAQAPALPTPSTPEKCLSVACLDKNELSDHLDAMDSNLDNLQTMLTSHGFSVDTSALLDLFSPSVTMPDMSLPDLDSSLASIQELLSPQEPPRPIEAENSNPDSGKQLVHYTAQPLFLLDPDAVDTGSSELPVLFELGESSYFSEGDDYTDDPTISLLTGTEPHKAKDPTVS

[5] = molecular target: T2, Corticotropin-releasing factor receptor 2/Corticotropin-releasing factor-binding protein (Homo sapiens, UniProt P24387+Q13324); experiment: activators of CRF receptor 2 with binding protein – uHTS hits, confirmation (AID 602473); assay type: functional; conditions: read-out: EC50_Mean
T2 sequence (Q13324 whole entry): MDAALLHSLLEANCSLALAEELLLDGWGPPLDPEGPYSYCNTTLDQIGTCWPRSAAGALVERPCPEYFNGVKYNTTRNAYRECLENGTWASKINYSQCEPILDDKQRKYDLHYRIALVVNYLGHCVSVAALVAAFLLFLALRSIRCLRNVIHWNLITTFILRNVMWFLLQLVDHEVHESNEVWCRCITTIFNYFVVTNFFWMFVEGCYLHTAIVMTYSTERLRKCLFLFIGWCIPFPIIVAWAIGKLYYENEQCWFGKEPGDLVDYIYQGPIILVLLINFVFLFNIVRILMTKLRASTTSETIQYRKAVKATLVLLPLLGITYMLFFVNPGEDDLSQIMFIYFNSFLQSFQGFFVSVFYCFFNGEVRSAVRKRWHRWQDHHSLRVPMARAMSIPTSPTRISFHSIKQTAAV
T2 sequence (P24387 whole entry): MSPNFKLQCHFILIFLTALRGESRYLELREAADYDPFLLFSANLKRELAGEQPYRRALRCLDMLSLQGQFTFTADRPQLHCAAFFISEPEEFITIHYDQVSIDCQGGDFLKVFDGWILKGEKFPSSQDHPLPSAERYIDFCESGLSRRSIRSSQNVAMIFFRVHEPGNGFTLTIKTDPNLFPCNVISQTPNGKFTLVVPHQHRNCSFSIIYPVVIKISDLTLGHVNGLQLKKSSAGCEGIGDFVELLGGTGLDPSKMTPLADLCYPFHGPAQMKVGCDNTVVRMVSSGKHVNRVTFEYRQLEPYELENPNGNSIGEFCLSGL

[6] = molecular target: T1, Heat shock factor protein 1; experiment: enhancement of HSF1-driven luciferase signal – cell-based, NIH3T3, luminescence, dose retest, confirmation (AID 435004); assay type: functional;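 further: stress induced by proteasome inhibitor MG132 added 30 min after compound; luciferase reporter driven by HSF1 response element in NIH3T3 cells; actives raise luminescence as potentiators of the MG132 stress response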
Cytochrome P450 3A4 = Cytochrome P450 3A4 (Homo sapiens, UniProt P08684);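 further: CYP3A4 tested as one member of a cytochrome P450 panel screen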
Cytochrome P450 1A2 = molecular target: T3, Cytochrome P450 1A2 (Homo sapiens, UniProt P05177);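 further: PubChem cytochrome P450 panel assay, CYP1A2 panel member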
T3 sequence (P05177 whole entry): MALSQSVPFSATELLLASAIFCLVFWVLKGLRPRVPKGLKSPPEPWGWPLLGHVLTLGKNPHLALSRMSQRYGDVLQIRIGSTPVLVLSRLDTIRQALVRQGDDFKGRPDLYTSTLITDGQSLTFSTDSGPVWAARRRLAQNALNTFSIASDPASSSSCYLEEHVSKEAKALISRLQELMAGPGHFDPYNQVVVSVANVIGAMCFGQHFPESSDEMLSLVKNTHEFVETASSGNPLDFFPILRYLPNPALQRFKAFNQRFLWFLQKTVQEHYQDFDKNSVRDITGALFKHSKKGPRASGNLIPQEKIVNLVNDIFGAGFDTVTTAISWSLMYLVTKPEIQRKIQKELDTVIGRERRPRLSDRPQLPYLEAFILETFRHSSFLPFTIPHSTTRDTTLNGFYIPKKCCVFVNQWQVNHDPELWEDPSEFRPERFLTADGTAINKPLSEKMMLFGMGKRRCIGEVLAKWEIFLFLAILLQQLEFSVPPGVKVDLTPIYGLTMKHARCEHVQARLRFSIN

[7] = test system: Streptococcus sp. 'group A'; experiment: Streptococcus pyogenes SK(-)GAS viability under kanamycin – luminescence, BacTiterGlo, confirmation, counter-screen for streptokinase expression inhibitor project, dose response (AID 1900); assay type: functional, organism-based
Streptococcus = experiment: GAS UMAA2166 growth inhibition – luminescence, BacTiterGlo, counter-screen for streptokinase expression inhibitor project, dose response (AID 1915); assay type: functional, organism-based;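 further: potency for reduction of bacterial viability or growth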

Chain of Cytochrome P450 3A4 (P08684 whole entry): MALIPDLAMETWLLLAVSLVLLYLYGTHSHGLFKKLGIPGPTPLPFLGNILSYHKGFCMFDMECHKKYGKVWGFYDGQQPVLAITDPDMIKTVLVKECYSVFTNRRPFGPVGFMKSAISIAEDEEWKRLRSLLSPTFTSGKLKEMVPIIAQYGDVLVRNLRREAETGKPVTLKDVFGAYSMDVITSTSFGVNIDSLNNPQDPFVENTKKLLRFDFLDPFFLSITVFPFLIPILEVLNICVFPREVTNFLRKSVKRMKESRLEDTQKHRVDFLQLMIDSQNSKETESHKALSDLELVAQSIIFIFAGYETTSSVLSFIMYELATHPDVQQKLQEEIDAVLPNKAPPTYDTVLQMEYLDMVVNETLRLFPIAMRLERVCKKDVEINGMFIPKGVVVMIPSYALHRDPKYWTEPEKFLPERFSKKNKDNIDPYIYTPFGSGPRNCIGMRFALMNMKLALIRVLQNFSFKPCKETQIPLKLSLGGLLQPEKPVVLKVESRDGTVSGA

Cc1nn(C(=O)c2ccoc2C)c(N)c1-c1ccccc1
EC50 [1]: 5.93 µM (active)
EC50 (H4): 21.6 µM (active)
EC50 [2]: 26.9 µM (active)

Cc1ccc2nsnc2c1NC(=O)COc1ccccc1F
EC50 [3]: > 150 µM (inconclusive)

COc1ccc(C(NC(=O)c2ccc(O)nc2)C(=O)Nc2ccc(C(C)C)cc2)cc1 (configuration not stated)
EC50 [4]: > 195 µM (not active)
EC50 [5]: > 53 µM (inactive)

C=CCn1c(C)cc(C(=O)CSc2nc(N)cc(N)n2)c1C
EC50 [6]: > 260 µM (inactive)

COc1ccc(CN(C)Cc2c(O)ccc3ccccc23)cc1
EC50 [6]: 38.8 µM (active)

COc1cc(OC)c(C2C(C(=O)O)c3ccccc3C(=O)N2C)cc1OC (configuration not stated)
AC50 (Cytochrome P450 3A4): 0.355 µM (inconclusive)
AC50 (Cytochrome P450 1A2): 31.6 µM (inconclusive)

Cc1ccc(C(=O)NNC(=O)c2ccccc2-n2cccc2)cc1
EC50 [6]: > 260 µM (inactive)

O=C(c1cnccn1)N1CCC2(CC1)CN(c1cccc(-c3ccccc3)c1)C2
AC50 (Cytochrome P450 3A4): 39.8 µM (inconclusive)
AC50 (Cytochrome P450 1A2): 15.8 µM (inconclusive)

COC(=O)C1=CN(c2ccc(F)cc2)C=C(C(=O)OC)C1c1cccc(Br)c1
EC50 [6]: > 260 µM (inactive)

CCC1Oc2ccc(C)cc2N(Cc2cccc(C)c2)C1=O (configuration not stated)
EC50 [6]: > 260 µM (inactive)

CCCSc1nnc2n(-c3ccccc3OC)c(=O)c3c4c(sc3n12)CCC4
EC50 [6]: > 260 µM (inactive)

COc1ccc(-c2nc3cnc(OC)nc3n(-c3ccc(OC)cc3)c2=O)cc1
AC50 (Cytochrome P450 3A4): 15.8 µM (inconclusive)
AC50 (Cytochrome P450 1A2): 0.316 µM (inconclusive)

COC(=O)c1ccc(OC(=O)CCN2C(=O)C3CCCCC3C2=O)cc1 (configuration not stated)
EC50 [6]: > 260 µM (inactive)

CC(=O)Nc1ccc(N2C(=O)C3C4CC(=O)C(c5ccccc54)C3C2=O)cc1 (configuration not stated)
EC50 [6]: > 260 µM (inactive)

Cc1nc(C(=N)NOC(=O)Cc2ccccc2)no1
EC50 [6]: > 260 µM (inactive)

O=S(=O)(c1ccc(Cl)cc1)N1CCC2(CC1)OCCN2S(=O)(=O)c1cccs1
EC50 [6]: 227 µM (active)

CCOc1ccc(N2C(=O)C(Cl)=C(Nc3ccccc3O)C2=O)cc1
EC50 (H4): 0.107 µM (active)
EC50 [2]: > 120 µM (not active)

Cc1nc2c(c(=O)c3ccccc3n2C)c(=O)n1C1CCCCCC1
EC50 [5]: 9.6 µM (active)

COc1ccc(NC(=O)c2ccc(-c3ccc(-c4noc(C)n4)cc3C)cc2)cc1OCCN(C)C
AC50 (Cytochrome P450 3A4): 15.8 µM (inconclusive)
AC50 (Cytochrome P450 1A2): 39.8 µM (inconclusive)

O=C(NC(C(=O)N/N=C/c1cccnc1)c1nnc(O)c2ccccc12)c1ccccc1 (configuration not stated)
EC50 [5]: 7.94 µM (active)

Cc1cc(C)n(-c2nc3ccccc3nc2N2CCN(C(=O)c3ccc(F)cc3)CC2)n1
EC50 [6]: > 260 µM (inactive)

CN(Cc1ccc(OC(F)F)cc1)Cc1nc(O)c2cc(Br)cc(Br)c2n1
EC50 [7]: 4.31 µM (active)
EC50 (Streptococcus): > 150 µM (not active)

CCOc1ccc(-n2c(=S)sc3c(O)nc(SCC(=O)NC(C)CC)nc32)cc1 (configuration not stated)
EC50 [6]: > 260 µM (inactive)

Cn1ncc2c(Nc3ccc(Br)cc3)nc(Nc3ccc(Br)cc3)nc21
EC50 [7]: 1.01 µM (active)
EC50 (Streptococcus): 2.38 µM (active)

Cc1nn(-c2ccc(Cl)cc2)c(O)c1/C=N/n1c(C)nc2ccccc2c1=O
EC50 [7]: 3.48 µM (active)
EC50 (Streptococcus): 7.22 µM (active)

O=c1[nH]c2ccccc2c2cn(-c3ccccc3)nc12
EC50 [6]: 126 µM (active)
